Measured values as given in the NIST ThermoML archive (doi:10.1016/j.jct.2016.01.016).
± gives the expanded uncertainty stated by the source.

Key:
[1] = for mass density: 101.33 kPa
[2] = Molar enthalpy of transition or fusion; settings: DSC
[3] = 300 K, Crystal 2, X-ray diffraction
[4] = 300 K, Metastable crystal, X-ray diffraction
[5] = 400 K, Crystal 1, X-ray diffraction

With NC(=O)CN1CCCC1=O [2-oxo-1-pyrrolidineacetamide] the mass density [1, 3] was 1373 ± 2 kg/m3, the mass density [1, 4] was 1365 ± 2 kg/m3 and the molar volume [1, 3] was 0.0001036 ± 4.9e-07 m3/mol. It also gave a molar volume [1, 4] of 0.0001042 ± 4.9e-07 m3/mol, a molar volume ([1]; 310 K, Crystal 2, X-ray diffraction) of 0.0001031 ± 4.9e-07 m3/mol and a molar volume ([1]; 310 K, Metastable crystal, X-ray diffraction) of 0.0001044 ± 4.9e-07 m3/mol. For the same compound, the molar volume ([1]; 320 K, Crystal 2, X-ray diffraction) was 0.0001039 ± 4.9e-07 m3/mol, the molar volume ([1]; 320 K, Metastable crystal, X-ray diffraction) was 0.0001045 ± 4.9e-07 m3/mol and the molar volume ([1]; 330 K, Crystal 2, X-ray diffraction) was 0.0001036 ± 4.9e-07 m3/mol. The molar volume ([1]; 330 K, Metastable crystal, X-ray diffraction) was 0.0001049 ± 4.9e-07 m3/mol, the molar volume ([1]; 340 K, Crystal 2, X-ray diffraction) was 0.0001042 ± 4.9e-07 m3/mol and the molar volume ([1]; 340 K, Metastable crystal, X-ray diffraction) was 0.0001051 ± 4.9e-07 m3/mol. For the same compound, the molar volume ([1]; 350 K, Crystal 2, X-ray diffraction) was 0.0001042 ± 4.9e-07 m3/mol, the molar volume ([1]; 350 K, Metastable crystal, X-ray diffraction) was 0.0001054 ± 4.9e-07 m3/mol and the molar volume ([1]; 355 K, Metastable crystal, X-ray diffraction) was 0.0001054 ± 4.9e-07 m3/mol. It also gave a molar volume ([1]; 360 K, Crystal 2, X-ray diffraction) of 0.0001047 ± 4.9e-07 m3/mol, a molar volume ([1]; 360 K, Metastable crystal, X-ray diffraction) of 0.0001055 ± 4.9e-07 m3/mol and a molar volume ([1]; 370 K, Crystal 1, X-ray diffraction) of 0.0001104 ± 4.9e-07 m3/mol. For the same compound, the molar volume ([1]; 370 K, Crystal 2, X-ray diffraction) was 0.0001049 ± 4.9e-07 m3/mol, the molar volume ([1]; 375 K, Crystal 1, X-ray diffraction) was 0.0001105 ± 4.9e-07 m3/mol and the molar volume ([1]; 380 K, Crystal 1, X-ray diffraction) was 0.0001106 ± 4.9e-07 m3/mol. The molar volume ([1]; 385 K, Crystal 1, X-ray diffraction) was 0.0001108 ± 4.9e-07 m3/mol, the molar volume ([1]; 390 K, Crystal 1, X-ray diffraction) was 0.0001108 ± 4.9e-07 m3/mol and the molar volume ([1]; 395 K, Crystal 1, X-ray diffraction) was 0.000111 ± 4.9e-07 m3/mol. It also gave a mass density [1, 5] of 1281 ± 2 kg/m3, a molar volume [1, 5] of 0.000111 ± 4.9e-07 m3/mol and a molar volume ([1]; 405 K, Crystal 1, X-ray diffraction) of 0.0001112 ± 4.9e-07 m3/mol. For the same compound, the molar volume ([1]; 410 K, Crystal 1, X-ray diffraction) was 0.0001112 ± 4.9e-07 m3/mol, the molar volume ([1]; 423 K, Liquid, Vibrating tube method) was 0.0001228 ± 4.4e-07 m3/mol and the molar volume ([1]; 428 K, Liquid, Vibrating tube method) was 0.0001232 ± 4.4e-07 m3/mol. For the same compound, the molar volume ([1]; 433 K, Liquid, Vibrating tube method) was 0.0001235 ± 4.4e-07 m3/mol, the molar volume ([1]; 438 K, Liquid, Vibrating tube method) was 0.0001239 ± 4.4e-07 m3/mol and the molar volume ([1]; 443 K, Liquid, Vibrating tube method) was 0.0001241 ± 4.4e-07 m3/mol. The molar volume ([1]; 448 K, Liquid, Vibrating tube method) was 0.0001245 ± 4.4e-07 m3/mol, the molar volume ([1]; 453 K, Liquid, Vibrating tube method) was 0.0001248 ± 4.4e-07 m3/mol and the molar volume ([1]; 458 K, Liquid, Vibrating tube method) was 0.0001252 ± 4.4e-07 m3/mol. It also gave a molar volume ([1]; 463 K, Liquid, Vibrating tube method) of 0.0001255 ± 4.4e-07 m3/mol, a molar volume ([1]; 468 K, Liquid, Vibrating tube method) of 0.0001259 ± 4.4e-07 m3/mol and a molar volume ([1]; 473 K, Liquid, Vibrating tube method) of 0.0001262 ± 4.4e-07 m3/mol. For the same compound, the Triple point temperature ([1]; Crystal 1, DSC) was 422.95 ± 5.1 K, the Triple point temperature ([1]; Crystal 2, X-ray diffraction) was 370.15 ± 6 K and the Triple point temperature ([1]; Metastable crystal, DSC) was 365.05 ± 5.1 K. The Triple point temperature ([1]; Metastable crystal, X-ray diffraction) was 360.15 ± 6 K, the “Molar enthalpy of transition or fusion” value ([2]; Crystal 1) was 6.35 ± 0.203 kcal/mol and the “Molar enthalpy of transition or fusion” value ([2]; Metastable crystal) was 0.843 ± 0.208 kcal/mol.
